In US12036190B2, “Methods and compositions for the treatment of cytoplasmic glycogen storage disorders” (Duke University, priority 2015, dated 2024):
Entries after “also recorded” stand apart in the source; their conditions may differ. Like-named read-outs stand apart in the source and are kept apart here.

Key:
[1] = tested on: autophagy; details: Table 4; drugs known to enhance autophagy; cited from earlier work
[2] = tested on: G6pc siRNA knockdown AML-12 cells; details: for Lipid Reduction Scoring, High dose / Lipid Reduction Scoring, Low dose / Lipid Reduction Scoring, Medium dose: Oil Red O, duplicate; for Lipid Reduction Scoring, Low dose: low concentration of Table 6; for Lipid Reduction Scoring, Medium dose: medium concentration of Table 6
Description: In brief, a wide array of drugs was selected, including those that modulate autophagy via the […] pathway, those that do so through AMPK modulation to act through mTORC1, and those using yet-undetermined pathways. Analysis of additional literature led to the selection of three concentrations of each compound to be tested in cell culture using the G6pc siRNA knockdown AML-12 mouse hepatocyte cell line model of GSD Ia as an initial screen for the drugs.
Drug concentrations were chosen based on similarity to published concentrations in either cell culture models resulting in target effects or autophagy, or in vivo extracellular fluid concentrations following animal treatments. The latter case is noted with the fluid type. Concentrations used in our in vitro AML-12 cell culture treatments are listed as the low, medium, and high concentrations that were screened.
The first test using AML-12 cells was the Oil Red 0 stain to examine the presence of lipid vacuoles in cells given the treatments.
G6pc siRNA knockdown AML-12 cells were given three different doses of each drug treatment. After 72 hours of growth, the media was changed to ketogenic media and appropriate quantities of each drug were added. This was performed in duplicate. Oil Red 0 staining was then performed and bright field images acquired at 10× magnification.
Drug treatments at three doses each were performed on G6pc siRNA knockdown AML-12 cells. Following oil red 0 staining the whole plates were evaluated visually for reductions in lipid accumulation. Treatments were performed in duplicate. —/0/+/++/+++ indicates the degree of improvement, or lipid reduction, caused by the treatment, with + indicating positive benefits.

[3] = tested on: GAA knockout (KO) mice; test: β2 agonist with ERT (rhGAA) in GAA-KO mice with Pompe disease; details: for glycogen content in skeletal muscle: β2 agonist added to ERT, versus ERT alone; for CI-MPR (M6PR) expression: muscle
[4] = tested on: patients with late-onset Pompe disease; details: adjunctive to ERT; cited from earlier work
[5] = tested on: mouse primary hepatocytes; test: LC3-II in mouse primary hepatocytes after clenbuterol; format: cell-based; details: 24 hours
Description: (§1) Asterisk indicates p<0.05.
(§2) Thus, clenbuterol, a long-acting β-agonist with proven safety for long-term treatment of mice, represents a leading candidate among drugs to be considered for the manipulation of autophagy in GSD Ia (Table 2).

[6] = tested on: murine model for hepatosteatosis; format: in vivo, mouse
[7] = tested on: HepG2 cells; test: LC3-II in HepG2 cells after clenbuterol; format: cell-based
Description: as §1, §2

[8] = tested on: G6pc−/− knockout mice; test: Bezafibrate treatment of G6pc−/− mice; format: in vivo
Description: G6pc−/− knockout mice were administered intraperitoneal injections of bezafibrate 25 mg/kg/day suspended in 10% DMSO/90% PBS IP for 3 days.

[9] = tested on: G6pc knockdown AML-12 cells; test: LC3 Western blot of drug-treated G6pc knockdown AML-12 cells; format: cell-based, mouse; details: 24 hours; conditions with optimal effects in the Oil Red O screen
Description: FIG. 27 illustrates LC3 Western blot of drug-treated G6pc knockdown AML-12 cells. Western blotting was performed on AML-12 cells incubated for 24 hours with the described drug conditions. LC3 was quantified and normalized against each condition's β-actin protein quantification.
In addition to Oil Red O staining, cells were analyzed via Western blots for restored LC3 expression for each drug, under the conditions that had optimal effects in the Oil Red O screen (FIG. 27). Since the Western antibody previously used successfully for rapamycin treatment LC3 blots had been discontinued by the manufacturer, we tested two alternative antibodies and chose the one from Cell Signaling Technologies because it gave the strongest signal-to-noise ratio under our experimental conditions.
Western blotting was performed on AML-12 cells incubated for 24 hours with the described drug conditions. LC3 was quantified and normalized against each condition's β-actin protein quantification.

Row | Compound | Effect [1] | Lipid Reduction Scoring, High dose ([2]; high concentration of Table 6) | Lipid Reduction Scoring, Low dose [2] | Lipid Reduction Scoring, Medium dose [2] | also measured
1 | CN(C)C(=N)N=C(N)N [Metformin] | Activated autophagy, activated AMPK in vitro | 0 | + |  | 
2 | Oc1ccc(C=Cc2cc(O)cc(O)c2)cc1 [Resveratrol] | Enhanced FAO , reduced | − − − | + | 0 (Spotty ++) | 
3 | Cc1c(C)c2c(c(C)c1O)CC[C@@](C)(CCC[C@H](C)CCC[C@H](C)CCCC(C)C)O2 [α-Tocopherol] |  |  | 0 (Spotty +) | − (Spotty ++) | 
4 | CN(C)c1ccc2nc3ccc(=[N+](C)C)cc-3sc2c1 [Methylene Blue, Methylene blue] | Activated autophagy, inhibited hepatosteatosis | − − − | + | − − | 
5 | CC(C)(C)NCC(O)c1ccc(O)c(CO)c1 (centres unmarked) [Albuterol, albuterol] |  |  |  |  | glycogen content in skeletal muscle [3]: lower glycogen content; 6 minute walk test performance [4]: improve the 6 minute walk test performance
6 | COc1ccc(CCN(C)CCCC(C#N)(c2ccc(OC)c(OC)c2)C(C)C)cc1OC (centres unmarked) [Verapamil] | Induced autophagy, reduced cytosolic calcium | − − |  | + | cell survival, High dose ([2]; high concentration of Table 6): Very high death
7 | Thyroid hormone | Increased autophagy, reduced steatosis |  |  |  | 
8 | CC(C)(C)NCC(O)c1cc(Cl)c(N)c(Cl)c1 (centres unmarked) [Clenbuterol, clenbuterol] |  |  |  |  | muscle hypertrophy ([3]; GAA-KO mice): induce muscle hypertrophy; CI-MPR (M6PR) expression ([3]; GAA-KO mice): enhance CI-MPR expression; CI-MPR (M6PR) expression ([3]; GAA-KO mice, listed as clenbuterol): increase the expression of CI-MPR; also recorded: increased CI-MPR expression; also recorded: enhancing M6PR expression; uptake of rhGAA ([3]; preclinical experiments): increased the uptake of rhGAA; glycogen content in skeletal muscle [3]: lower glycogen content; also recorded: decreased glycogen storage; LC3-II [5]: increases LC3-II; autophagy ([6]; murine model for hepatosteatosis): induce autophagy; hepatosteatosis ([6]; preclinical experiments): reduced hepatosteatosis; lowest concentration at which LC3-II is increased ([7]; 24 hours): 300 nM; LC3-II ([7]; 24 hours after addition): increases LC3-II
9 | CC(C)(Oc1ccc(CCNC(=O)c2ccc(Cl)cc2)cc1)C(=O)O [Bezafibrate, bezafibrate] |  | ++ |  | + | kidney weight as a percentage of total body weight ([8]; bezafibrate 25 mg/kg/day IP, p<0.046): very small but quantitatively significant increase; blood glucose level ([8]; bezafibrate-treated affected mice, below threshold of detection): < 20 mg/dL
10 | CC#C[C@]1(O)CC[C@H]2[C@@H]3CCC4=CC(=O)CCC4=C3[C@@H](c3ccc(N(C)C)cc3)C[C@@]21C [Mifepristone] | Activated autophagy, inhibited FXR | ++ | + | + (Spotty ++) | cell survival, High dose [2]: Great survival; LC3 normalized against β-actin (Western blot) [9]: increase in LC3 autophagic marker
11 | O=C(O)CCCCC1CCSS1 (stereo not drawn) [α-Lipoic acid, α-lipoic acid] | Activated autophagy, reduced intercellular | 0 | + |  | 
12 | OC[C@H]1O[C@H](O[C@H]2O[C@H](CO)[C@@H](O)[C@H](O)[C@H]2O)[C@H](O)[C@@H](O)[C@@H]1O [Trehalose] | Stimulated autophagy |  | + | − − | cell survival, High dose [2]: High death
